Assay results published in paper PMC3335202 (Journal of Medicinal Chemistry, 2012).
Read-outs that look alike come from different tables or passages of the source.

What was measured:
[1] = system: Human embryonic stem cell H9 lines carrying MYH6-mCherry reporters; experiment: hESC cardiogenesis assay; assay type: cell-based; conditions: for induction of cardiogenesis (class in words): dose-response behaviour
[2] = system: HEK293T cells
[3] = system: Human embryonic stem cell H9 lines carrying MYH6-mCherry reporters; conditions: cited from earlier work
[4] = system: β-catenin-dependent canonical Wnt pathway; experiment: Wnt inhibition assay; assay type: cell-based, human; conditions: for IC50: Wnt inhibition; for fold less potent in Wnt inhibition: compared with the well-tolerated parent (9/1)
[5] = Homo sapiens, HEK-293T, HEK293T cells

Row | Molecule | induction of cardiogenesis (class in words) ([1]; hESCs) | further results
1 | O=C(Nc1cccc2cccnc12)c1ccc(N2C(=O)[C@@H]3[C@H](C2=O)[C@@H]2C=C[C@H]3C2)cc1 [Compound 1, reference compound] | dose-dependent induction of cardiogenesis functional activity | cell toxicity ([2]; human): not toxic to HEK293T cells
2 | Oc1nc(-c2ccc(C(F)(F)F)cc2)nc2c1CSCC2 [Compound 2] |  | fold less potent than 1 and 3 (cardiogenesis) ([3]; hESCs): about 1.5 fold; maximum efficacious concentration for cardiogenesis ([3]; hESCs): 2 µM; cell toxicity [2]: did not induce cell toxicity
3 | Cc1ccc2nc(NC(=O)CSc3nc4c(c(=O)n3-c3ccc(F)cc3)SCC4)sc2c1 [Compound 3] |  | maximum efficacious concentration for cardiogenesis ([3]; hESCs): 2.5 µM
4 | COc1ccc(/C=C2/SC(=S)N(CCCC(=O)O)C2=O)cc1OC [Compound 4] |  | cardiogenic activity (in words) ([3]; at 50 μM): weakly cardiogenic
5 | O=C(Nc1cccc2cccnc12)c1ccc(N2C(=O)[C@@H]3[C@@H]4CC[C@@H](C4)[C@@H]3C2=O)cc1 [Compound 9, 4-(cis-endo-1,3-Dioxooctahydro-2H-4,7-methanoisoindol-2-yl)-N-(quinolin-8-yl)benzamide] | dose-dependent induction of cardiogenesis functional activity | 
6 | O=C1[C@@H]2[C@@H]3CC[C@@H](C3)[C@@H]2C(=O)N1[C@H]1CC[C@H](C(=O)Nc2cccc3cccnc23)CC1 [Compound 10, 4-(cis-endo-1,3-Dioxooctahydro-2H-4,7-methanoisoindol-2-yl)-N-(quinolin-8-yl)-trans-cyclohexyl carboxamide] | potent stimulators of cardiogenesis | Emax ([1]; Homo sapiens, Embryonic stem cell, read-out: % cardiogenesis): 145%
7 | O=C1[C@@H]2[C@@H]3CC[C@@H](C3)[C@@H]2C(=O)N1[C@H]1CC[C@@H](C(=O)Nc2cccc3cccnc23)CC1 [Compound 11, 4-(cis-endo-1,3-Dioxooctahydro-2H-4,7-methanoisoindol-2-yl)-N-(quinolin-8-yl)-cis-cyclohexyl carboxamide] | dose-dependent induction of cardiogenesis functional activity | 
8 | O=C(Nc1cccc2ccccc12)c1ccc(N2C(=O)[C@@H]3[C@@H]4CC[C@@H](C4)[C@@H]3C2=O)cc1 [Compound 12, 4-(cis-endo-1,3-Dioxooctahydro-2H-4,7-methanoisoindol-2-yl)-N-(naphtalen-1-yl) benzamide] | functionally inactive as inducers of cardiogenesis | 
9 | O=C1[C@@H]2[C@@H]3CC[C@@H](C3)[C@@H]2C(=O)N1[C@H]1CC[C@H](C(=O)Nc2nccc3ccccc23)CC1 [Compound 13, 4-(cis-endo-1,3-Dioxooctahydro-2H-4,7-methanoisoindol-2-yl)-N-(isoquinolin-1-yl)-trans-cyclohexylcarboxamide] | dose-dependent induction of cardiogenesis functional activity | 
10 | O=C1[C@@H]2[C@@H]3CC[C@@H](C3)[C@@H]2C(=O)N1[C@H]1CC[C@H](C(=O)Nc2cncc3ccccc23)CC1 [Compound 14, 4-(cis-endo-1,3-Dioxooctahydro-2H-4,7-methanoisoindol-2-yl)-N-(isoquinolin-4-yl)-trans-cyclohexylcarboxamide] | dose-dependent induction of cardiogenesis functional activity | 
11 | O=C1[C@@H]2[C@@H]3CC[C@@H](C3)[C@@H]2C(=O)N1[C@H]1CC[C@H](C(=O)Nc2cccc3ccncc23)CC1 [Compound 18, 4-(cis-endo-1,3-Dioxooctahydro-2H-4,7-methanoisoindol-2-yl)-N-(isoquinolin-8-yl)-trans-cyclohexylcarboxamide] | dose-dependent induction of cardiogenesis functional activity | Z score at 625 nM ([1]; cardiogenesis, relative to DMSO control, 625 nM): negative
12 | COC(=O)c1ccccc1NC(=O)[C@H]1CC[C@H](N2C(=O)[C@@H]3[C@@H]4CC[C@@H](C4)[C@@H]3C2=O)CC1 [Compound 27] | dose-dependent induction of cardiogenesis functional activity | 
13 | O=C1CCCc2cccc(NC(=O)[C@H]3CC[C@H](N4C(=O)[C@@H]5[C@@H]6CC[C@@H](C6)[C@@H]5C4=O)CC3)c21 [Compound 29, 4-(cis-endo-(1,3-Dioxooctahydro-2H-4,7-methanoisoindol-2-yl))-N-(8-oxo-5,6,7,8-tetrahydronaphthalen-1-yl)-trans-cyclohexylcarboxamide] | potent stimulators of cardiogenesis | concentration giving maximum percent cardiogenesis ([1]; hESCs): 150 nM; fold greater cardiogenic potency (lower concentration) compared to 1 ([1]; ratio of concentrations for maximum cardiogenesis): 30 fold
14 | O=C1c2ccccc2-c2cccc(NC(=O)[C@H]3CC[C@H](N4C(=O)[C@@H]5[C@@H]6CC[C@@H](C6)[C@@H]5C4=O)CC3)c21 [Compound 30, 4-(cis-endo-(1,3-Dioxooctahydro-2H-4,7-methanoisoindol-2-yl))-N-(9H-fluoren-9-on-1-yl)-trans-cyclohexylcarboxamide] | dose-dependent induction of cardiogenesis functional activity | 
15 | O=C1[C@@H]2[C@@H]3CC[C@@H](C3)[C@@H]2C(=O)N1[C@H]1CC[C@H](C(=O)Nc2ccccn2)CC1 [Compound 31, 4-(cis-endo-(1,3-Dioxooctahydro-2H-4,7-methanoisoindol-2-yl))-N-(pyridin-2-yl)-trans-cyclohexyl carboxamide] | functionally inactive as inducers of cardiogenesis | IC50 [4, 5]: ~100 nM
16 | O=C1[C@@H]2[C@@H]3CC[C@@H](C3)[C@@H]2C(=O)N1[C@H]1CC[C@H](C(=O)Nc2ccncc2)CC1 [Compound 33, 4-(cis-endo-(1,3-Dioxooctahydro-2H-4,7-methanoisoindol-2-yl))-N-(pyridin-4-yl)-trans-cyclohexyl carboxamide] | functionally inactive as inducers of cardiogenesis | IC50 [4, 5]: ~100 nM
17 | CC(=O)c1ncccc1NC(=O)[C@H]1CC[C@H](N2C(=O)[C@@H]3[C@@H]4CC[C@@H](C4)[C@@H]3C2=O)CC1 [Compound 34, 4-(cis-endo-(1,3-Dioxooctahydro-2H-4,7-methanoisoindol-2-yl))-N-(2-acetyl-pyridin-3-yl)-trans-cyclohexylcarboxamide] | potent stimulators of cardiogenesis | 
18 | CC(=O)c1ccc(NC(=O)[C@H]2CC[C@H](N3C(=O)[C@@H]4[C@@H]5CC[C@@H](C5)[C@@H]4C3=O)CC2)cn1 [Compound 35, 4-(cis-endo-(1,3-Dioxooctahydro-2H-4,7-methanoisoindol-2-yl))-N-(6-acetyl-pyridin-3-yl)-trans-cyclohexylcarboxamide] | functionally inactive as inducers of cardiogenesis | 
19 | O=C(Nc1cccc2cccnc12)c1ccc(N2C(=O)[C@@H]3[C@H](C2=O)[C@@H]2C=C[C@H]3CC2)cc1 [Compound 36, 4-cis-endo-(3a,4,7,7a-Tetrahydro-1H-4,7-ethanoisoindole-1,3(2H)-dion-2-yl)-N-(quinolin-8-yl) benzamide] |  | fold less potent in Wnt inhibition [4]: > 10 fold
20 | O=C(Nc1cccc2cccnc12)c1ccc(N2C(=O)[C@@H]3[C@H]4CC[C@H](CC4)[C@@H]3C2=O)cc1 [Compound 37, 4-cis-endo-(Hexahydro-1H-4,7-ethanoisoindole-1,3(2H)-dion-2-yl)-N-(quinolin-8-yl) benzamide] | functionally inactive as inducers of cardiogenesis | IC50 [4, 5]: > 200 nM; fold less potent in Wnt inhibition [4]: > 10 fold
21 | O=C(Nc1cccc2cccnc12)c1ccc(N2C(=O)C3C(C2=O)[C@H]2CC[C@@H]3O2)cc1 (stereo partly shown) [Compound 39, 4-(Hexahydro-1H-4,7-epoxyisoindole-1,3(2H)-dion-2-yl)-N-(quinolin-8-yl)benzamide] | functionally inactive as inducers of cardiogenesis | fold less potent in Wnt inhibition [4]: > 10 fold
22 | COc1cc(Br)ccc1NC(=O)[C@H]1CC[C@H](N2C(=O)[C@@H]3[C@@H]4CC[C@@H](C4)[C@@H]3C2=O)CC1 [Compound 53, 4-(cis-endo-1,3-Dioxooctahydro-2H-4,7-methanoisoindol-2-yl)-N-(4-bromo-2-methoxyphenyl)-trans-cyclohexylcarboxamide] | dose-dependent induction of cardiogenesis functional activity | 
23 | O=C1[C@@H]2[C@@H]3CC[C@@H](C3)[C@@H]2C(=O)N1[C@H]1CC[C@H](C(=O)Nc2cncc(O)c2)CC1 [Compound 54, 4-(cis-endo-1,3-Dioxooctahydro-2H-4,7-methanoisoindol-2-yl)-N-(5-hydroxyl-pyridin-3-yl)-trans-cyclohexylcarboxamide] | dose-dependent induction of cardiogenesis functional activity | 
24 | O=C1[C@@H]2[C@@H]3CC[C@@H](C3)[C@@H]2C(=O)N1[C@H]1CC[C@H](C(=O)Nc2cccnc2Cl)CC1 [Compound 55, 4-(cis-endo-1,3-Dioxooctahydro-2H-4,7-methanoisoindol-2-yl)-N-(2-chloropyridin-3-yl)-trans-cyclohexylcarboxamide] | dose-dependent induction of cardiogenesis functional activity | 
25 | CC(=O)c1ccccc1NC(=O)[C@H]1CC[C@@H](N2C(=O)[C@@H]3[C@@H]4CC[C@@H](C4)[C@@H]3C2=O)CC1 [Compound 56, 4-(cis-endo-1,3-Dioxooctahydro-2H-4,7-methanoisoindol-2-yl)-N-(2-acetylphenyl)-cis-cyclohexyl carboxamide] | dose-dependent induction of cardiogenesis functional activity | 
26 | N-[4-((3aR,4S,7R,7aS)-1,3,3a,4,7,7a-Hexahydro-1,3-dioxo-4,7-methano-2H-isoindol-2-yl)phenyl]-quinoline-8-carboxamide [Compound 52] | functionally inactive as inducers of cardiogenesis | % inhibition (1 μM) ([4]; Wnt inhibition at 1 μM, HEK293T cells): 91 ± 1%; IC50 ([4]; HEK293T cells): 119 ± 9 nM
